Data taken from US20240132513A1, “BENZAZEPINE DERIVATIVES, COMPOSITIONS, AND METHODS FOR TREATING COGNITIVE IMPAIRMENT” (AGENEBIO, INC., priority 2022, published 2024).
Read-outs that look alike come from different tables or passages of the source.

Assays:
[1] = target: T1, GABAA R (α5β2γ2) (Homo sapiens, UniProt P18507+P31644); experiment: Positive allosteric modulator activity: potentiation of EC20 GABA current in oocytes; assay type: cell-based
T1 construct: expressed in transfected cells
Experimental: On day 1, 1 ng/32 nL of GABAA α5β2γ2 cDNA was injected into one oocyte. Test starts on day 2. The cDNA injected to the oocytes was a mix of alpha, beta and gamma, their ratio is 1:1:10 (by weight) and the total weight of the mixed 3 subunits to be injected in one oocyte was 1 ng in 32 nl volume. The injected oocytes can also be tested on day 3. In such case, the cDNA amount injected to the oocytes should be reduced by 20%.
Compounds of the present disclosure were tested using the following procedures.
8 oocytes were placed in 8 chambers of OpusXpress and superfused with Modified Barth's Saline (MBS) at 3 mL/min. Glass electrodes back-filled with 3M KCl (0.5-3 megaohms) were used. Membrane potential of oocytes was voltage-clamped at −60 mV. • 2).
Control Test (Diazepam or Methyl 3,5-Diphenylpyridazine-4-Carboxylate) • 1). New oocytes was used to run new test. • 2). […] Oocytes were washed with MBS for 5-10 min. • 4). […] Itest was divided by IGABA to obtain potentiation (%).
Test Compounds at Multiple Doses • 1). Repeat the above steps 1), 2) and 3) in the control test. • 2). […] Divide Itest by IGABA to obtain potentiation (%). • 3). Discard all tested oocytes, new oocytes were used and the above steps 1) and 2) were repeated to test second concentration of the same compound. Each oocyte was used for only one concentration test for a single test compound. The steps were repeated for other test compounds.

[2] = target: α5β3γ2 GABAA R (Homo sapiens, UniProt P18507+P31644); experiment: Binding activity on GABAA R: inhibition of [3H]Ro15-1788 binding, α5 containing receptor
Outline: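 Membranes from dexamethasone-induced (0.5 μM, 1 day) Ltk cells stably expressing α5β3γ2 receptors, 0.2 mg/ml protein, incubated with [3H]Ro15-1788 for 1 h at 4 °C in 50 mM KH2PO4/1 mM EDTA/0.2 M KCl, pH 7.4. Nonspecific binding with 10 μM diazepam; bound ligand by GF/B filtration and scintillation counting, triplicates.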

[3] = read-out: GABA α5 Functional Data: potentiation
[4] = ranges of the column heads, [3H]Ro15-1788, Ltk cell membranes
[5] = read-out: GABA α5 Functional Data: potentiation, @ 100 nM, EC20 GABA, ranges of the column heads

Sequence of α5β3γ2 GABAA R (P31644 32-462): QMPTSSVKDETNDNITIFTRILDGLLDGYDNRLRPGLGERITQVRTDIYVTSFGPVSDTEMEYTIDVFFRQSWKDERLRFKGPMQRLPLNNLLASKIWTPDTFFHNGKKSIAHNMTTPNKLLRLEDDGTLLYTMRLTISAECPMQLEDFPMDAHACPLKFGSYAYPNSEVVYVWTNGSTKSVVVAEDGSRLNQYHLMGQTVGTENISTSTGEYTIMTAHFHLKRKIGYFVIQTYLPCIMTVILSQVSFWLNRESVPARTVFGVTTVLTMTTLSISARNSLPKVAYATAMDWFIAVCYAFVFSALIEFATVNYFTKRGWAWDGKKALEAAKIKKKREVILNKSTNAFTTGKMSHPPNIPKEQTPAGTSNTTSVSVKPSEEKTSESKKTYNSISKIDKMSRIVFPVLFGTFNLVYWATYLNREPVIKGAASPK
Sequence of α5β3γ2 GABAA R (P28472 26-473 partner): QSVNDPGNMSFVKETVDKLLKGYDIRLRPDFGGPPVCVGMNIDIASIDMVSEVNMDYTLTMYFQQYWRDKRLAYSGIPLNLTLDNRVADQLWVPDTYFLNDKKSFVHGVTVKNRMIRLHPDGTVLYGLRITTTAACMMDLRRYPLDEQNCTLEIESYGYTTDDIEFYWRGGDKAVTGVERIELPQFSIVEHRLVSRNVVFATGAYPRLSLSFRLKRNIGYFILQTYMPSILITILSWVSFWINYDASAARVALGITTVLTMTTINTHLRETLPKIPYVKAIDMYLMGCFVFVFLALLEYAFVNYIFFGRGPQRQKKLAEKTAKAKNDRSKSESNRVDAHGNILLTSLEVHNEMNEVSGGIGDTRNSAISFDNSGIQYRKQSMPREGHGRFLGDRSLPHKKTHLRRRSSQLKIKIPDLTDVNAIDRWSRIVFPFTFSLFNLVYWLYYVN
Sequence of α5β3γ2 GABAA R (P18507 40-475): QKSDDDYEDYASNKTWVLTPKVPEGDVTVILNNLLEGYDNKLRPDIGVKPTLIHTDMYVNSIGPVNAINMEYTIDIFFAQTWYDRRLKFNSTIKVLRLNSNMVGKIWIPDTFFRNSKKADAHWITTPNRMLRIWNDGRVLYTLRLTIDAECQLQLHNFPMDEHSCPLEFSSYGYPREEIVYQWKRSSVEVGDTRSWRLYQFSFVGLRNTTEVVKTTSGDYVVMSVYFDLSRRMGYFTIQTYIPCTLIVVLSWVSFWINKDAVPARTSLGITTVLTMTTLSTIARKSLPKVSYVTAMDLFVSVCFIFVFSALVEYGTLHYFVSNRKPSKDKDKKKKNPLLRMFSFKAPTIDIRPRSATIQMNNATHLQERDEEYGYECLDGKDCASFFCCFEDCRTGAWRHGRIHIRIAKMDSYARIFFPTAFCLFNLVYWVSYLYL
T1 sequence (P31644 32-462): as the sequence (P31644 32-462) above
T1 sequence (P47870 25-512 partner limits assumed): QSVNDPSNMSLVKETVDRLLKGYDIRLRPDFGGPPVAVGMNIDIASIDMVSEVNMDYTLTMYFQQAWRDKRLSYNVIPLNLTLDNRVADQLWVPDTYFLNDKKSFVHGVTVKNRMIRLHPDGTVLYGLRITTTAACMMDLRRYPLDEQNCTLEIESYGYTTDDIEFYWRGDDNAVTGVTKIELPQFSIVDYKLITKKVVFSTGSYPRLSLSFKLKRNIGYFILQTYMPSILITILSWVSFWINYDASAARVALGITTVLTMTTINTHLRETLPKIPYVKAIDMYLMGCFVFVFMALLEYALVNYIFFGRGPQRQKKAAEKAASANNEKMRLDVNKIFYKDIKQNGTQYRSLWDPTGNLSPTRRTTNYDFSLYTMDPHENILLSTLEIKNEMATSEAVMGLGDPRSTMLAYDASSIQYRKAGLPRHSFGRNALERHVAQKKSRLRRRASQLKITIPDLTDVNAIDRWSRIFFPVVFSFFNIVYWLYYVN
T1 sequence (P18507 40-475): as the sequence (P18507 40-475) above

activation at 0.1 µM [1, 3] [%]	Ki [2, 4] [nM]	Compound	activation at 0.1 µM [1, 5] [%]	Ki [2] [nM]
5 to 20	< 100	CCOC(=O)c1ncn2c1Cc1cnoc1-c1cc(Cl)ccc1-2 [Compound 57]		
20 to 50	< 100	CC(C)(C)C#Cc1ncn2c1Cc1cn[nH]c1-c1cc(Cl)ccc1-2 [Compound 63]		
		Clc1ccc2c(c1)-c1[nH]ncc1Cc1c(C#Cc3cccnc3)ncn1-2 [Compound 64]	> 50	< 100
		COc1ccc2c(c1)-c1[nH]ncc1Cc1c(C#CC(C)(C)C)ncn1-2 [Compound 73]	5 to 20	< 100
20 to 50	< 100	COc1ccc2c(c1)-c1nn(Cc3ccccc3)cc1Cc1c(-c3cnn(Cc4ccccc4)c3)ncn1-2 [Compound 76]		
		CC(C)c1nc(-c2ncn3c2Cc2cn[nH]c2-c2cc(Cl)ccc2-3)no1 [Compound 84]	5 to 20	< 100
		FC(F)(F)c1nc(-c2ncn3c2Cc2cn[nH]c2-c2cc(Cl)ccc2-3)no1 [Compound 85]	5 to 20	< 100
		Cc1nc(-c2ncn3c2Cc2cn[nH]c2-c2cc(Cl)ccc2-3)no1 [Compound 86]	5 to 20	< 100
20 to 50	< 100	COc1ccc2c(c1)-c1[nH]ncc1Cc1c(-c3noc(C(F)(F)F)n3)ncn1-2 [Compound 87]		
		COc1ccc2c(c1)-c1[nH]ncc1Cc1c(-c3noc(C)n3)ncn1-2 [Compound 88]	5 to 20	< 100
20 to 50	< 100	COc1ccc2c(c1)-c1[nH]ncc1Cc1c(C#Cc3ccccn3)ncn1-2 [Compound 90]		
		COc1ccc2c(c1)-c1[nH]ncc1Cc1c(C#Cc3cccnc3)ncn1-2 [Compound 91]	5 to 20	< 100
5 to 20	< 100	Clc1ccc2c(c1)-c1[nH]ncc1Cc1c(-c3cnco3)ncn1-2 [Compound 93]		
20 to 50	< 100	Clc1ccc2c(c1)-c1[nH]ncc1Cc1c(C#Cc3ccccn3)ncn1-2 [Compound 94]		
5 to 20	< 100	CC(C)c1noc(-c2ncn3c2Cc2cn(Cc4ccccc4)nc2-c2cc(Cl)ccc2-3)n1 [Compound 96]		
		CC(C)c1noc(-c2ncn3c2Cc2cn(Cc4ccncc4)nc2-c2cc(Cl)ccc2-3)n1 [Compound 97]	5 to 20	< 100
5 to 20	< 100	CC(C)c1noc(-c2ncn3c2Cc2cn(Cc4cccnc4)nc2-c2cc(Cl)ccc2-3)n1 [Compound 98]		
		COc1ccc2c(c1)-c1[nH]ncc1Cc1c(-c3nc(C4CCOC4)no3)ncn1-2 (stereo not shown) [Compound 100]	5 to 20	< 100
		Cn1cc2c(n1)-c1cc(Cl)ccc1-n1cnc(C#CC(C)(C)C)c1C2 [Compound 101]	20 to 50	< 100
5 to 20	< 100	CC(C)c1noc(-c2ncn3c2Cc2cn(C)nc2-c2cc(Cl)ccc2-3)n1 [Compound 103]		
5 to 20	< 100	CCn1cc2c(n1)-c1cc(Cl)ccc1-n1cnc(-c3nc(C(C)C)no3)c1C2 [Compound 104]		
		Clc1ccc2c(c1)-c1[nH]ncc1Cc1c(-c3nc(C4CC4)no3)ncn1-2 [Compound 105]	20 to 50	< 100
		FC(F)(F)c1noc(-c2ncn3c2Cc2cn[nH]c2-c2cc(Cl)ccc2-3)n1 [Compound 106]	20 to 50	< 100

activation at 0.1 µM [1, 3] [%]	Ki [2, 4] [nM]	Compound	activation at 0.1 µM [1, 5] [%]	Ki [2] [nM]
		Clc1ccc2c(c1)-c1[nH]ncc1Cc1c(-c3nc(C4CCOC4)no3)ncn1-2 (stereo not shown) [Compound 108]	20 to 50	< 100
20 to 50	< 100	COc1ccc2c(c1)-c1nn(C)cc1Cc1c(-c3noc(C(C)C)n3)ncn1-2 [Compound 109]		
		COCCn1cc2c(n1)-c1cc(OC)ccc1-n1cnc(-c3noc(C(C)C)n3)c1C2 [Compound 110]	20 to 50	< 100
20 to 50	< 100	COCCn1cc2c(n1)-c1cc(Cl)ccc1-n1cnc(-c3nc(C(C)C)no3)c1C2 [Compound 111]		
		CC(C)c1noc(-c2ncn3c2Cc2cn(CCN(C)C)nc2-c2cc(Cl)ccc2-3)n1 [Compound 112]	5 to 20	< 100
		Cn1cc2c(n1)-c1cc(Cl)ccc1-n1cnc(-c3nc(C(C)(C)C)no3)c1C2 [Compound 113]	20 to 50	< 100
		COc1ccc2c(c1)-c1nn(C(C)C)cc1Cc1c(-c3noc(C(C)C)n3)ncn1-2 [Compound 114]	20 to 50	< 100
		Clc1ccc2c(c1)-c1[nH]ncc1Cc1c(-c3nc(C4CCCC4)no3)ncn1-2 [Compound 115]	5 to 20	< 100
		COc1ccc2c(c1)-c1nn(CC3CC3)cc1Cc1c(-c3nc(C(F)(F)F)no3)ncn1-2 [Compound 116]	5 to 20	< 100
		COc1ccc2c(c1)-c1nn(C)cc1Cc1c(-c3nc(C(C)(C)C)no3)ncn1-2 [Compound 118]	20 to 50	< 100
		COc1ccc2c(c1)-c1nn(C)cc1Cc1c(-c3nc(C(F)(F)F)no3)ncn1-2 [Compound 119]	5 to 20	< 100
20 to 50	< 100	COc1ccc2c(c1)-c1nn(C)cc1Cc1c(-c3nc(C4CC4)no3)ncn1-2 [Compound 120]		
		Cc1noc(-c2ncn3c2Cc2cn(C)nc2-c2cc(Cl)ccc2-3)n1 [Compound 121]	20 to 50	< 100
		Cn1cc2c(n1)-c1cc(Cl)ccc1-n1cnc(-c3nc(C(F)(F)F)no3)c1C2 [Compound 122]	5 to 20	< 100
		Clc1ccc2c(c1)-c1[nH]ncc1Cc1c(-c3nc(C4CCCCC4)no3)ncn1-2 [Compound 123]	5 to 20	< 100
		COc1ccc2c(c1)-c1nn(Cc3ccccn3)cc1Cc1c(-c3nc(C(C)C)no3)ncn1-2 [Compound 124]	20 to 50	< 100
		COc1ccc2c(c1)-c1nn(Cc3cccnc3)cc1Cc1c(-c3nc(C(C)C)no3)ncn1-2 [Compound 125]	20 to 50	< 100
		COc1ccc2c(c1)-c1nn(C)cc1Cc1c(-c3nc(C4CCOC4)no3)ncn1-2 (stereo not shown) [Compound 126]	20 to 50	< 100
		Cn1cc2c(n1)-c1cc(Cl)ccc1-n1cnc(-c3nc(C4CC4)no3)c1C2 [Compound 127]	20 to 50	< 100
		COCCn1cc2c(n1)-c1cc(Cl)ccc1-n1cnc(-c3nc(C4CC4)no3)c1C2 [Compound 128]	5 to 20	< 100
		Clc1ccc2c(c1)-c1nn(CC3CC3)cc1Cc1c(-c3nc(C4CC4)no3)ncn1-2 [Compound 129]	20 to 50	< 100
		COc1ccc2c(c1)-c1nn(C)cc1Cc1c(-c3noc(C(F)(F)F)n3)ncn1-2 [Compound 130]	> 50	< 100
		COc1ccc2c(c1)-c1nn(C)cc1Cc1c(-c3noc(C)n3)ncn1-2 [Compound 131]	5 to 20	< 100

Compound	activation at 0.1 µM [1, 3] [%]	Ki [2, 4] [nM]	activation at 0.1 µM [1, 5] [%]	Ki [2] [nM]
CC(C)c1noc(-c2ncn3c2Cc2cn(Cc4ccccn4)nc2-c2cc(Cl)ccc2-3)n1 [Compound 99]	20 to 50			< 100
